Structures are written as SMILES. Where “and” joins values, the source holds several entries; their conditions need not be identical. Equal values may be shown once.

This assay concerns PDC 521955-158-R6-J3 spheroids, viability. Kind of assay: Anticancer human tumor 521955-158-R6-J3-PDC patient-derived pancreatic carcinoma cell line growth inhibition [TAK]. The following applies: spheroids with HUVEC and MSC; for viability, T/C: stronger effect = lower value. From the text:
Combinatorial screen of targeted agents with TAK-243 and ipatasertib in multi-cell type tumor spheroids
A high-throughput screen of multi-cell type tumor spheroids was designed to identify active combinations of targeted small molecules and TAK-243 or ipatasertib. Complex spheroids include a stromal component modeled by human endothelial cells (HUVEC) and fibroblasts modeled by human mesenchymal stem cells (MSCs). The concentration ranges selected for each drug and investigational agent were based upon clinically achievable concentrations if the clinical Cmax of the agent was known.
Compounds. The drugs and investigational agents: TAK-243 (785004), ipatasertib (767898), everolimus (733504), selumetinib (741078), bortezomib (756655), trametinib (758246), ixazomib (758254), vemurafenib (761431), dabrafenib (764134), sapanisertib (764658), alpelisib (765974), and copanlisib (816437), were obtained from the National Cancer Institute (NCI) Developmental Therapeutics Program Chemical Repository. The FDA-approved anticancer drug set is available from the NCI Developmental Therapeutics Program. […] The stock solutions were prepared in dimethyl sulfoxide (DMSO, Sigma-Aldrich, St. Louis, MO, cat. D2650) at 800-fold the tested concentration and stored at -70 degrees C prior to their use. All drugs and investigational agents were tested over a range starting from a high concentration at or near the clinical Cmax and decreasing in half-log increments. If the clinical Cmax for an agent had not been determined, the highest concentration tested was 10 microM.
NCI60 Cell Culture. NCI60 cell lines were obtained from the NCI Developmental Therapeutics Program Tumor Repository. For each lot of cells, the Repository performed Applied Biosystems AmpFLSTR Identifiler testing with PCR amplification to confirm consistency with the published Identifier STR profile for each cell line. Cells were kept in continuous culture for no more than 20 passages. The optimal seeding densities for each of the cell lines at each time point assessed were determined prior to performing the concentration response studies. Briefly, the NCI60 human tumor lines were grown as monolayers in RPMI 1640 medium supplemented with 10% FBS and 2 mmol/L L-glutamine.
An additional 2 lines were from the NCI60 cell line panel including melanomas, MALME-3M and SK-MEL-2. Pooled donor human umbilical vein endothelial cells (HUVEC, Lonza, cat. CC-2519) and human mesenchymal stem cells (hMSC, Lonza, cat. PT-2501) were purchased from Lonza (Walkersville, MD).
PDMR cell lines were grown in complete medium (DC medium): Dulbecco's modified Eagle's medium (DMEM)/F12 supplemented with 5% fetal bovine serum (FBS), 2 mM L-glutamine, 100 U/mL penicillin and 100 µg/ml streptomycin, 0.4 µg/ml hydrocortisone, 10 ng/ml epidermal growth factor (EGF) recombinant human protein, 24 µg/mL adenine, and 0.1 mg/mL primocin. During culture from frozen stock vials, PDMR cells were cultured in the same medium containing 10 µM Y-27632 (see Table 3). The PDCs were cultured in complete DMEM/F12 media without 10 microM Y-27632 dihydrochloride for at least two passages prior to the screen. The pooled donor HUVEC and hMSC were cultured in endothelial cell growth medium 2 (PromoCell, Heidelberg, Germany, cat. C-22011) and mesenchymal stem cell growth medium 2 (PromoCell, cat. C-28009), respectively. For all experiments, HUVEC and hMSC were used at passages </=5.
For the pre-screen, cell seeding densities were determined from a titration spanning the range from 5,000 to 313 cells per well. The mct-spheroids including 60% malignant cells, 25% HUVEC and 15% MSC dispensed as a mixture into U-bottom Ultra-Low Attachment 384-well plates (Corning, NY)
High-throughput Drug Combination Screening.
Prior to their inoculation into 384-well plates, malignant cells, HUVEC, and hMSC were removed from T flasks using TrypLE express (Thermo Fisher Scientific, cat. 12605036) and harvested by centrifugation for 5 min at 233 x g. […]
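Note: spheroids exposed to drugs for 7 days before readout.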

Take `CC(C)n1nc(-c2ccc3oc(N)nc3c2)c2c(N)ncnc21`: the viability, T/C runs as follows: (compound 0.000316 µM) 93.6% and 99.9%; (compound 0.001 µM) 95% and 91.3%; (compound 0.00316 µM) 86% and 98.5%; (compound 0.01 µM) 85.3% and 94.8%; (compound 0.0316 µM) 83.2% and 81.7%; (compound 0.1 µM) 73.8% and 70.4%. For the same compound, where the note is “curve of compound”, the IC50 was over 100 nM.
Turning to `CC(C)CC(NC(=O)C(Cc1ccccc1)NC(=O)c1cnccn1)B(O)O` (configuration not stated) + CC(C)NCC(C(=O)N1CCN(c2ncnc3c2C(C)CC3O)CC1)c1ccc(Cl)cc1, the IC50 (curve of first compound, second compound 0.3 µM) worked out at 5.96 nM; the IC50 (curve of first compound, second compound 0.949 µM) amounted to 5.82 nM; the IC50 (curve of first compound, second compound 3 µM) stood at 5.71 nM; the IC50 (curve of first compound, second compound 9.49 µM) worked out at 6.02 nM; the IC50 (curve of first compound, second compound 30 µM) was found to be 5.65 nM. Besides, the viability, T/C was 94.4% (second compound 0.3 µM, first compound 31.6 pM); 95.4% (second compound 0.3 µM, first compound 0.0001 µM); 94.5% (second compound 0.3 µM, first compound 0.000316 µM); 96.1% (second compound 0.3 µM, first compound 0.001 µM); 111% (second compound 0.3 µM, first compound 0.00316 µM); 10.6% (second compound 0.3 µM, first compound 0.01 µM). The viability, T/C is 94.3% (second compound 0.949 µM, first compound 31.6 pM); 84.2% (second compound 0.949 µM, first compound 0.0001 µM); 93.5% (second compound 0.949 µM, first compound 0.000316 µM); 103% (second compound 0.949 µM, first compound 0.001 µM); 109% (second compound 0.949 µM, first compound 0.00316 µM); 8.36% (second compound 0.949 µM, first compound 0.01 µM). The viability, T/C is, setting by setting: (second compound 3 µM, first compound 31.6 pM) 90.6%; (second compound 3 µM, first compound 0.0001 µM) 90.5%; (second compound 3 µM, first compound 0.000316 µM) 93%; (second compound 3 µM, first compound 0.001 µM) 93.7%; (second compound 3 µM, first compound 0.00316 µM) 113%; (second compound 3 µM, first compound 0.01 µM) 6.03%. Moreover, the viability, T/C (second compound 9.49 µM, first compound 31.6 pM) was 94.3%; the viability, T/C (second compound 9.49 µM, first compound 0.0001 µM) was 89%; the viability, T/C (second compound 9.49 µM, first compound 0.000316 µM) is 97.6%; the viability, T/C (second compound 9.49 µM, first compound 0.001 µM) was 96.1%; the viability, T/C (second compound 9.49 µM, first compound 0.00316 µM) was 104%; the viability, T/C (second compound 9.49 µM, first compound 0.01 µM) was 13.5%. The viability, T/C is 93.8% (second compound 30 µM, first compound 31.6 pM); 92.1% (second compound 30 µM, first compound 0.0001 µM); 89.9% (second compound 30 µM, first compound 0.000316 µM); 98.5% (second compound 30 µM, first compound 0.001 µM); 98.4% (second compound 30 µM, first compound 0.00316 µM); 6.17% (second compound 30 µM, first compound 0.01 µM).
`COc1c(OCCCN2CCOCC2)ccc2c3n(c(=NC(=O)c4cnc(N)nc4)nc12)CCN3`: the viability, T/C reads like this: (compound 0.00316 µM) 85.3% and 76.8%; (compound 0.01 µM) 79.2% and 62.1%; (compound 0.0316 µM) 61.2% and 49.2%; (compound 0.1 µM) 47.5% and 35.9%; (compound 0.316 µM) 30.7% and 23.5%; (compound 1 µM) 23.3% and 18.5%. Also, the IC50 (curve of compound) was 76.2 nM and 28.1 nM.
Regarding `CC(C)NCC(C(=O)N1CCN(c2ncnc3c2C(C)CC3O)CC1)c1ccc(Cl)cc1` (configuration not stated), the viability, T/C (compound 0.3 µM) is 93.8% [middle of 10 runs]. Also, the IC50 (compound alone, run of 02/20/2020) was over 30000 nM and the IC50 (compound alone, run of 03/19/2020) was over 30000 nM.

Usually viability, T/C stands for the ratio of treated to control. Broadly, the IC50 is the concentration that inhibits the measured activity by half.

For the origin of these results see PubChem BioAssay AID2060350 (Molecular Pharmacology Branch, DTP, NCI, 2025).
